{"source": "patent US20250282770A1", "about": "“BIOLUMINESCENT PROBES TO TRACK STEM CELLS IN VIVO” (THE BOARD OF TRUSTEES OF THE UNIVERSITY OF ILLINOIS, priority 2024, published 2025)", "key": {"[1]": {"system": "4T1 murine mammary carcinoma cells", "assay": "AlDeLuc activation in 4T1 cells, lysate bioluminescence", "format": "cell-based", "conditions": "4T1 cell lysates; 100 μM, 60 minutes", "description": "Validation of ALDH-Mediated Activation of AlDeLuc in Murine Breast Cancer Cells. 4T1 cells were cultured in T75 culture flasks. After two days, cells had become ˜90% confluent. An aliquot of RPMI 1640 media (1 mL) was removed from each flask and replaced with either DEAB ([…], 0.5% DMSO) or vehicle (0.5% DMSO). After incubation for one hour, the solutions were aspirated, washed with PBS, and resuspended in fresh RPMI 1640 media (9 mL). Each flask was then incubated with the AlDeLuc (100 μM) and DEAB (500 μM) or AlDeLuc (100 μM) and vehicle (DMSO), each with a final concentration of 1% DMSO. After 60 minutes, this solution was aspirated, washed with fresh PBS, and detached from the culture flasks. The cells were then transferred to a 15 mL centrifuge tube and pelleted at 1000 rpm for 5 minutes at room temp. The cells were resuspended in PBS along with 10% protease inhibitor solution (1 protease inhibitor mini tablet per 10 mL of PBS, Pierce, Thermo Fisher Scientific) and sonicated on ice for 2.5 minutes (pulse 01, 01, 40%). The cell debris was removed via centrifugation and the supernatant was plated ([…]) into a 96-well plate (n=4 for each condition). […] ROIs were drawn around each well and the signal intensity was quantified using the Living Image Analysis software."}, "BALB/c mice": {"system": "BALB/c mice", "assay": "Evaluation of systemic toxicity of AlDeLuc, H&E staining of organs", "format": "in vivo", "conditions": "0.55 mg/kg systemic (retro-orbital); four hours", "description": "Evaluation of Systemic Toxicity of AlDeLuc in BALB c mice. BALB/c mice were anesthetized and administered AlDeLuc or vehicle via retro-orbital injection (0.55 mg/kg, 1:19 v/v DMSO:PBS). After four hours, mice were euthanized, and their organs were harvested, fixed in formalin, and submitted to Veterinary Medicine for Hematoxylin and eosin staining."}, "[2]": {"system": "A549 human lung carcinoma cells", "assay": "AlDeLuc activation in A549 cells, lysate bioluminescence", "format": "cell-based", "description": "Validation of ALDH-Mediated Activation of AlDeLuc in Human Lung Cancer Cells. A549 cells were cultured in T75 culture flasks. After two days, cells had become ˜90% confluent. An aliquot of HAMS FK12 media (1 mL) was removed from each flask and replaced with either disulfiram (DSF) (100 μM, 0.5% DMSO) or vehicle (0.5% DMSO). After incubation for one hour, the solutions were aspirated, the cells were washed with PBS, and resuspended in fresh HAMS FK12 media (9 mL). Each flask was then incubated with the AlDeLuc such that the final concentration of the probe is 100 µM and 1% DMSO. After 60 minutes this solution was aspirated, washed with fresh PBS, and detached from the culture flasks. The cells were then transferred to a 15 mL centrifuge tube and pelleted at 1000 rpm for 5 minutes at room temp. The cells were resuspended in PBS along with 10% protease inhibitor solution (1 protease inhibitor mini tablet per 10 mL of PBS, Pierce, Thermo Fisher Scientific) and sonicated on ice for 2.5 minutes (pulse 01, 01, 40%). […] ROIs were drawn around each well and the signal intensity was quantified using the Living Image Analysis software.\nDetermining Sensitivity of AlDeLuc by Cell Concentration Changes. […] ROIs were drawn around each well and the signal intensity was quantified using the Living Image Analysis software."}, "β-Galactosidase": {"target": "T1, β-Galactosidase (Escherichia coli, UniProt P00722)", "T1 construct": "purchased Millipore-Sigma Aldrich", "T1 sequence (P00722 2-1024)": "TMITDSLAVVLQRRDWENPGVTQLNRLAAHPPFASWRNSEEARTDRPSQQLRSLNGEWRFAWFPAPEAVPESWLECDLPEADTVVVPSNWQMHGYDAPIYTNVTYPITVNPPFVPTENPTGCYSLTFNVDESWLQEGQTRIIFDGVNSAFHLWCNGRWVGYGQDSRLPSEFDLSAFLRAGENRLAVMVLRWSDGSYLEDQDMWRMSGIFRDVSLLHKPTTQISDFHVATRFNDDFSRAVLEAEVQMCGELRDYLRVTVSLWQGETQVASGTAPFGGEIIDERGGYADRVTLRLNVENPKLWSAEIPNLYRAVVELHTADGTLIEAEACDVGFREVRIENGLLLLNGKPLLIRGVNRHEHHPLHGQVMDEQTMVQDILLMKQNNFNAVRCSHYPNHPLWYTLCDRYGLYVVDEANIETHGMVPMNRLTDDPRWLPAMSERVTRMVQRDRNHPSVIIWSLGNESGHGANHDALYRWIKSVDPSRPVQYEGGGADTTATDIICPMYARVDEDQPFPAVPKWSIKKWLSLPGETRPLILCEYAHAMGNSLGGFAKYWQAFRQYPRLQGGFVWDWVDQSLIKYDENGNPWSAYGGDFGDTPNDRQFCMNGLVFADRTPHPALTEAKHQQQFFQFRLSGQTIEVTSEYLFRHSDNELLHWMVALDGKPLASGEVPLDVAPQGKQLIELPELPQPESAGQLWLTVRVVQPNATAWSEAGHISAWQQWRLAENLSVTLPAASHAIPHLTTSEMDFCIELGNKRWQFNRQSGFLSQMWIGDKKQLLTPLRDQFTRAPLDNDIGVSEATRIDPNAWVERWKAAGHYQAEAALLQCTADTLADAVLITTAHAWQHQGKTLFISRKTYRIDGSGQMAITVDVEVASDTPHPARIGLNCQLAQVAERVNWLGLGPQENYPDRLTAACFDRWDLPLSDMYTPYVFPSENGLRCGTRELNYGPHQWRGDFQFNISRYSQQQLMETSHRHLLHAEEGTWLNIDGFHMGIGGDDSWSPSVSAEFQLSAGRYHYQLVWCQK", "assay": "Stability of AlDeLuc to β-Galactosidase", "format": "biochemical", "conditions": "10 μM; 1 unit of β-Gal", "description": "Exploring the Stability of AlDeLuc to β-Galactosidase. The stability of AlDeLuc (10 μM) against β-Galactosidase (β-gal) was determined using a black 96-well plate and monitored using the IVIS imaging system. In a 96-well plate was added PBS (pH 7.4), β-gal (1 unit), and AlDeLuc. As a positive control to the same plate, was added PBS (pH 7.4), ALDH1A1 (0.4 μM), NAD^+ (1 mM), and acid activated AlDeLuc. Immediately after AlDeLuc was added, ATP-MgSO4 (45 μL, prepared by mixing 17.78 mM ATP-Mg and 35.56 mM MgSO4 in a 1:1 ratio in PBS buffer) and luciferase (5 μL, 1 mg/mL in PBS containing 10% glycerol) were administered to initiate bioluminescence production. Light was collected promptly after mixing, and the total luminescent counts were measured for both conditions. The total volume of each well was 200 μL with 0.1% DMSO. All data reported as the mean±standard deviation (n=4)."}}}
{"smiles": "CCN(CC)c1ccc2nc(C3=N[C@@H](C(OC)OC)CS3)sc2c1", "note": "[AlDeLuc, (S)-2-(4-(dimethoxymethyl)-4,5-dihydrothiazol-2-yl)-N,N-diethylbenzo[d]thiazol-6-amine]", "values": [{"measurement": "increase in bioluminescence compared to blank controls", "setting": "[1]", "result": 42, "unit": "fold"}, {"measurement": "H&E stains of spleen, kidneys, lungs, heart, liver compared to vehicle animals", "setting": "BALB/c mice", "result": "indistinguishable"}, {"measurement": "bioluminescence intensity increase", "setting": "[2]; 3.6×10^6 A549 cells, 100 μM, 60 min", "result": 56, "unit": "fold"}, {"measurement": "light emission relative to vehicle controls", "setting": "[2]; ~1.25×10^5 A549 cells, 20 μM, one hour", "result": 22.1, "unit": "fold"}, {"measurement": "stability of acetal", "setting": "β-Galactosidase", "result": "completely stable"}]}
